# In patent US20230233569A1 (Revolution Medicines, Inc., priority 2020, published 2023):
# Where two headings read alike, the source gives them in different places.
# Tests used:
# NCI-H358 (K-Ras G12C) = assay: CellTiter-Glo cell viability assay, 5-day treatment; format: cell-based; conditions: Homo sapiens, NCI-H358, 120 h
# In short: (§1)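 Viability is read as luminescence on day 5 after direct compound addition to plated cells, following about 30 minutes' room-temperature equilibration. Each signal is scaled to mean DMSO as 100%.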
# Capan-1 (K-Ras G12V) = assay: as above; format: cell-based; conditions: Homo sapiens, CAPAN-1, 120 h
# In short: as §1
# NRAS G12C = NRAS G12C (Homo sapiens, UniProt P01111+P62937, G12C); assay: Disruption of BRAF RBD interaction with Ras (FRET / MOA assay, with Cyclophilin A); format: biochemical
# KRAS G13D = KRAS G13D (Homo sapiens, UniProt P01116+P62937, G13D); assay: as above; format: biochemical
# In short: (§2)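 IC50 values reflect loss of K-Ras binding to BRAF RBD, read as a lowered TR-FRET ratio compared with DMSO, driven by compound-mediated K-Ras:Cyclophilin A complex formation. Compound top dose 30 μM final, 3-fold steps, 3 h incubation at 25 °C before a 1.5 h antibody step.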
# KRAS G13C = KRAS G13C (Homo sapiens, UniProt P01116+P62937, G13C); assay: as above; format: biochemical
# In short: as §2
# KRAS G12S = KRAS G12S (Homo sapiens, UniProt P01116+P62937, G12S); assay: as above; format: biochemical
# In short: as §2
# KRAS G12V = KRAS G12V (Homo sapiens, UniProt P01116+P62937, G12V); assay: as above; format: biochemical
# In short: as §2
# KRAS G12C = KRAS G12C (Homo sapiens, UniProt P01116+P62937, G12C); assay: as above; format: biochemical
# In short: as §2
# KRAS G12D = KRAS G12D (Homo sapiens, UniProt P01116+P62937, G12D); assay: as above; format: biochemical
# In short: as §2
# KRAS WT = KRAS WT (Homo sapiens, UniProt P01116+P62937); assay: as above; format: biochemical
# In short: as §2
# [1] = 5-day treatment, read-out: H358 Cell Viability assay data (K-Ras G12C, IC50)
# [2] = 5-day treatment, read-out: Capan-1 Cell Viability assay data (K-Ras G12V, IC50)
# [3] = NRAS G12C, read-out: NRAS G12C FRET data IC50
# [4] = KRAS G13D, read-out: KRAS G13D FRET data IC50
# [5] = read-out: KRAS G13C FRET data, IC50
# [6] = read-out: KRAS G12S FRET data, IC50
# [7] = KRAS G12V, read-out: KRAS G12V FRET data IC50
# [8] = read-out: KRAS G12C FRET data, IC50
# [9] = read-out: KRAS G12D FRET data, IC50
# [10] = KRAS WT, read-out: KRAS WT FRET data IC50
# [11] = NRAS G12C FRET data IC50, NRAS G12C
# [12] = KRAS G13D FRET data IC50, KRAS G13D
# [13] = KRAS G12V FRET data IC50, KRAS G12V
# [14] = KRAS WT FRET data IC50, KRAS WT
# KRAS G12D, sequence (P01116 1-169 isoform P01116-2 G12D limits assumed): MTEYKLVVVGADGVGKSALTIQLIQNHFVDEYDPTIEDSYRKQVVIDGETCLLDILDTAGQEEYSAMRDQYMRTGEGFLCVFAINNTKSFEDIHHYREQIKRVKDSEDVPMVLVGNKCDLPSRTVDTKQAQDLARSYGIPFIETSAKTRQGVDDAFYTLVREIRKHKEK
# KRAS G12D, sequence (P62937 whole entry): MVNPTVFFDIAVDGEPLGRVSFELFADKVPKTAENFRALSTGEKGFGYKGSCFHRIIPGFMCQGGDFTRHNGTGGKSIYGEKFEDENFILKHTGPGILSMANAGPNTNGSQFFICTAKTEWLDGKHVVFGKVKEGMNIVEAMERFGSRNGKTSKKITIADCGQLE
# KRAS G13C, sequence (P01116 1-169 isoform P01116-2 G13C): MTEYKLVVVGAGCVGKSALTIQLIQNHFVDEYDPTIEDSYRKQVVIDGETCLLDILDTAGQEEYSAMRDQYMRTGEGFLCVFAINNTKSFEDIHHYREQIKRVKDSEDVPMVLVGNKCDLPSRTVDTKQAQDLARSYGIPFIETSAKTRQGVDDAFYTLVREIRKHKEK
# KRAS G13C, sequence (P62937 whole entry): as the sequence (P62937 whole entry) above
# NRAS G12C, sequence (P01111 whole entry G12C): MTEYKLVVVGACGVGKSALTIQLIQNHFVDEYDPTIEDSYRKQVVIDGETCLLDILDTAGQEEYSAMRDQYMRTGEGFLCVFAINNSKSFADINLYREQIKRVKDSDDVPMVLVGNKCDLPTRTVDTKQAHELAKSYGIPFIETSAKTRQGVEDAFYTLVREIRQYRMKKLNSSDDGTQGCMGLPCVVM
# NRAS G12C, sequence (P62937 whole entry): as the sequence (P62937 whole entry) above
# KRAS WT, sequence (P01116 1-169 isoform P01116-2 limits assumed): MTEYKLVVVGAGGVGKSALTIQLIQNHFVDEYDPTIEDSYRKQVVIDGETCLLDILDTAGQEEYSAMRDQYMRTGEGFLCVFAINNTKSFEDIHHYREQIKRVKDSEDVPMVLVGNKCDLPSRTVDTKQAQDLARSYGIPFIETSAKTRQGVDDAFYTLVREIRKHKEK
# KRAS WT, sequence (P62937 whole entry): as the sequence (P62937 whole entry) above
# KRAS G12V, sequence (P01116 1-169 isoform P01116-2 G12V limits assumed): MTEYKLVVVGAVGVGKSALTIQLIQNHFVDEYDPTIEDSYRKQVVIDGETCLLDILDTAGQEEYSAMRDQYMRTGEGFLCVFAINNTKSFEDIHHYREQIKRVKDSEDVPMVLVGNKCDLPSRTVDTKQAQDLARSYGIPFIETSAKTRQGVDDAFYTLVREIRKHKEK
# KRAS G12V, sequence (P62937 whole entry): as the sequence (P62937 whole entry) above
# KRAS G13D, sequence (P01116 1-169 isoform P01116-2 G13D limits assumed): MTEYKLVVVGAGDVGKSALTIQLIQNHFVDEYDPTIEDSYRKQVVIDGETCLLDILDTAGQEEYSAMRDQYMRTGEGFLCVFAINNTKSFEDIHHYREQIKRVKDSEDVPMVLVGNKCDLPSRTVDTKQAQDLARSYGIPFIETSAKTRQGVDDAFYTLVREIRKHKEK
# KRAS G13D, sequence (P62937 whole entry): as the sequence (P62937 whole entry) above
# KRAS G12S, sequence (P01116 1-169 isoform P01116-2 G12S limits assumed): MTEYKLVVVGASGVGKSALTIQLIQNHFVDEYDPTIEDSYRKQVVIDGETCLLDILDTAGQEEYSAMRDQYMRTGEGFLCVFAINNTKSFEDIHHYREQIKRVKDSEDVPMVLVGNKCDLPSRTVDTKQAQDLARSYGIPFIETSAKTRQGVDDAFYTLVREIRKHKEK
# KRAS G12S, sequence (P62937 whole entry): as the sequence (P62937 whole entry) above
# KRAS G12C, sequence (P01116 1-169 isoform P01116-2 G12C): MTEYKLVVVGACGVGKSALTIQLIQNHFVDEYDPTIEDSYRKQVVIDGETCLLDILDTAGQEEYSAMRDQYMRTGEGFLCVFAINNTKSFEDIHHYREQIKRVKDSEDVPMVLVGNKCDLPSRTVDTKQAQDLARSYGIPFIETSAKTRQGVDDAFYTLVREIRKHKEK
# KRAS G12C, sequence (P62937 whole entry): as the sequence (P62937 whole entry) above
Structure (SMILES),IC50 (NCI-H358 (K-Ras G12C); [1]),IC50 (Capan-1 (K-Ras G12V); [2]),IC50 (NRAS G12C; [3]),IC50 (KRAS G13D; [4]),IC50 (KRAS G13C; [5]),IC50 (KRAS G12S; [6]),IC50 (KRAS G12V; [7]),IC50 (KRAS G12C; [8]),IC50 (KRAS G12D; [9]),IC50 (KRAS WT; [10]),IC50 (NRAS G12C; [11]),IC50 (KRAS G13D; [12]),"IC50 (KRAS G13C; KRAS G13C FRET data, IC50)","IC50 (KRAS G12S; KRAS G12S FRET data, IC50)",IC50 (KRAS G12V; [13]),"IC50 (KRAS G12C; KRAS G12C FRET data, IC50)","IC50 (KRAS G12D; KRAS G12D FRET data, IC50)",IC50 (KRAS WT; [14]),"IC50 (NCI-H358 (K-Ras G12C); read-out: H358 Cell Viability assay data (K-Ras G12C, IC50, uM), 5-day treatment)","IC50 (Capan-1 (K-Ras G12V); read-out: Capan-1 Cell Viability assay data (K-Ras G12V, IC50, uM))"
CCn1c(-c2cnccc2[C@H](C)OC)c2c3cc(ccc31)-c1cc(O)cc(c1)C[C@H](NC(=O)[C@H](C(C)C)N(C)C(C)=O)C(=O)N1CCC[C@H](N1)C(=O)OCC(C)(C)C2 [Example A21],0.1 to 1 µM,0.1 to 1 µM,0.1 to 1 µM,0.1 to 1 µM,0.01 to 0.1 µM,0.1 to 1 µM,0.1 to 1 µM,0.1 to 1 µM,1 to 10 µM,0.1 to 1 µM,–,–,–,–,–,–,–,–,–,–
CCn1c(-c2cnccc2COC)c2c3cc(ccc31)-c1cc(O)cc(c1)C[C@H](NC(=O)[C@H](C(C)C)N(C)C(=O)[C@H]1CCOC1)C(=O)N1CCC[C@H](N1)C(=O)OCC(C)(C)C2 [Example A26],0.1 to 1 µM,0.1 to 1 µM,0.1 to 1 µM,0.1 to 1 µM,0.1 to 1 µM,0.1 to 1 µM,0.1 to 1 µM,0.1 to 1 µM,1 to 10 µM,0.1 to 1 µM,–,–,–,–,–,–,–,–,–,–
CCn1c(-c2cnccc2COC)c2c3cc(ccc31)-c1cc(O)cc(c1)C[C@H](NC(=O)[C@H](C(C)C)N(C)C(=O)[C@H]1CCN(C(=O)C(C)C)C1)C(=O)N1CCC[C@H](N1)C(=O)OCC(C)(C)C2 [Example A29],0.1 to 1 µM,1 to 10 µM,0.1 to 1 µM,1 to 10 µM,1 to 10 µM,0.1 to 1 µM,0.1 to 1 µM,0.1 to 1 µM,> 10 µM,1 to 10 µM,–,–,–,–,–,–,–,–,–,–
CCn1c(-c2cnccc2COC)c2c3cc(ccc31)-c1cc(O)cc(c1)C[C@H](NC(=O)[C@H](C(C)C)N(C)C(=O)N1CC(OC)C1)C(=O)N1CCC[C@H](N1)C(=O)OCC(C)(C)C2 [Example A30],0.1 to 1 µM,0.1 to 1 µM,0.1 to 1 µM,1 to 10 µM,0.1 to 1 µM,0.1 to 1 µM,0.1 to 1 µM,0.1 to 1 µM,1 to 10 µM,0.1 to 1 µM,–,–,–,–,–,–,–,–,–,–
"CCn1c(-c2cnccc2COC)c2c3cc(ccc31)-c1cc(O)cc(c1)C[C@H](NC(=O)[C@H](C(C)C)N(C)C(=O)CO)C(=O)N1CCC[C@H](N1)C(=O)OCC(C)(C)C2 [Example A43, (2S)—N-[(8S,14S)-22-ethyl-4-hydroxy-21-[4-(methoxymethyl)pyridin-3-yl]-18,18-dimethyl-9,15-dioxo-16-oxa-10,22,28-triazapentacyclo[18.5.2.1^2,6.1^10,14.0^23,27]nonacosa-1(26),2,4,6(29),20,23(27),24-heptaen-8-yl]-2-(2-hydroxy-N-methylacetamido)-3-methylbutanamide]",1 to 10 µM,1 to 10 µM,–,–,–,–,–,–,–,–,0.1 to 1 µM,0.1 to 1 µM,0.1 to 1 µM,0.1 to 1 µM,0.1 to 1 µM,0.1 to 1 µM,1 to 10 µM,0.1 to 1 µM,–,–
CCn1c(-c2cnccc2COC)c2c3cc(ccc31)-c1cc(O)cc(c1)C[C@H](NC(=O)[C@H](C(C)C)N(C)C(=O)[C@@H]1NC[C@@H]3C[C@@H]31)C(=O)N1CCC[C@H](N1)C(=O)OCC(C)(C)C2 [Example A78],–,–,–,–,–,–,–,–,–,–,0.1 to 1 µM,0.1 to 1 µM,0.01 to 0.1 µM,0.1 to 1 µM,0.1 to 1 µM,0.1 to 1 µM,0.1 to 1 µM,0.1 to 1 µM,0.1 to 1 µM,1 to 10 µM
CCn1c(-c2cnccc2COC)c2c3cc(ccc31)-c1cc(O)cc(c1)C[C@H](NC(=O)[C@H](C(C)C)N(C)C(=O)C1CCN(C)CC1)C(=O)N1CCC[C@H](N1)C(=O)OCC(C)(C)C2 [Example A84],> 10 µM,> 10 µM,–,–,–,–,–,–,–,–,1 to 10 µM,0.1 to 1 µM,0.1 to 1 µM,0.1 to 1 µM,1 to 10 µM,0.1 to 1 µM,1 to 10 µM,0.1 to 1 µM,–,–
CCn1c(-c2cnccc2COC)c2c3cc(ccc31)-c1cc(O)cc(c1)C[C@H](NC(=O)[C@H](C(C)C)N(C)C(=O)[C@H]1CCCO1)C(=O)N1CCC[C@H](N1)C(=O)OCC(C)(C)C2 [Example A90],0.1 to 1 µM,0.1 to 1 µM,–,–,–,–,–,–,–,–,0.1 to 1 µM,0.1 to 1 µM,0.1 to 1 µM,0.1 to 1 µM,0.1 to 1 µM,0.1 to 1 µM,1 to 10 µM,0.1 to 1 µM,–,–
CCn1c(-c2cnccc2COC)c2c3cc(ccc31)-c1cc(O)cc(c1)C[C@H](NC(=O)[C@H](C(C)C)N(C)C(=O)[C@@H]1CCCO1)C(=O)N1CCC[C@H](N1)C(=O)OCC(C)(C)C2 [Example A91],0.1 to 1 µM,0.1 to 1 µM,0.1 to 1 µM,1 to 10 µM,0.1 to 1 µM,0.1 to 1 µM,0.1 to 1 µM,0.1 to 1 µM,1 to 10 µM,0.1 to 1 µM,–,–,–,–,–,–,–,–,–,–
CCn1c(-c2cnccc2COC)c2c3cc(ccc31)-c1cc(O)cc(c1)C[C@H](NC(=O)[C@H](C(C)C)N(C)C(=O)[C@@H]1CCOC1)C(=O)N1CCC[C@H](N1)C(=O)OCC(C)(C)C2 [Example A94],0.1 to 1 µM,0.1 to 1 µM,0.1 to 1 µM,0.1 to 1 µM,0.1 to 1 µM,0.1 to 1 µM,0.1 to 1 µM,0.1 to 1 µM,1 to 10 µM,0.1 to 1 µM,–,–,–,–,–,–,–,–,–,–
CCn1c(-c2cccnc2[C@H](C)OC)c2c3cc(ccc31)-c1cc(O)cc(c1)C[C@H](NC(=O)[C@H](C(C)C)N(C)C(=O)[C@H]1CCN(C(=O)CN(C)C)C1)C(=O)N1CCC[C@H](N1)C(=O)OCC(C)(C)C2 [Example A95],0.1 to 1 µM,0.1 to 1 µM,0.01 to 0.1 µM,0.01 to 0.1 µM,0.01 to 0.1 µM,0.01 to 0.1 µM,0.01 to 0.1 µM,0.01 to 0.1 µM,0.01 to 0.1 µM,0.01 to 0.1 µM,–,–,–,–,–,–,–,–,–,–
CCn1c(-c2cccnc2[C@H](C)OC)c2c3cc(ccc31)-c1cc(O)cc(c1)C[C@H](NC(=O)[C@H](C(C)C)N(C)C(=O)[C@H]1CCN(C)C1)C(=O)N1CCC[C@H](N1)C(=O)OCC(C)(C)C2 [Example A100],0.1 to 1 µM,1 to 10 µM,0.01 to 0.1 µM,0.01 to 0.1 µM,0.01 to 0.1 µM,0.01 to 0.1 µM,0.1 to 1 µM,0.01 to 0.1 µM,0.01 to 0.1 µM,0.01 to 0.1 µM,–,–,–,–,–,–,–,–,–,–
CCn1c(-c2cnccc2COC)c2c3cc(ccc31)-c1cc(O)cc(c1)C[C@H](NC(=O)[C@H](C(C)C)N(C)C(=O)OC1CN(C)C1)C(=O)N1CCC[C@H](N1)C(=O)OCC(C)(C)C2 [Example A101],1 to 10 µM,1 to 10 µM,0.1 to 1 µM,0.1 to 1 µM,0.01 to 0.1 µM,0.1 to 1 µM,1 to 10 µM,0.1 to 1 µM,0.1 to 1 µM,0.1 to 1 µM,–,–,–,–,–,–,–,–,–,–
CCn1c(-c2cccnc2[C@H](C)OC)c2c3cc(ccc31)-c1cc(O)cc(c1)C[C@H](NC(=O)[C@H](C(C)C)N(C)C(=O)[C@H]1CCN(CCO)C1)C(=O)N1CCC[C@H](N1)C(=O)OCC(C)(C)C2 [Example A111],1 to 10 µM,1 to 10 µM,0.1 to 1 µM,0.01 to 0.1 µM,0.01 to 0.1 µM,0.01 to 0.1 µM,1 to 10 µM,0.01 to 0.1 µM,0.01 to 0.1 µM,0.01 to 0.1 µM,–,–,–,–,–,–,–,–,–,–
CCn1c(-c2cccnc2[C@H](C)OC)c2c3cc(ccc31)-c1cc(O)cc(c1)C[C@H](NC(=O)[C@H](C(C)C)N(C)C(=O)C1CCN3CCOCC13)C(=O)N1CCC[C@H](N1)C(=O)OCC(C)(C)C2 (stereo partly drawn) [Example A123],0.1 to 1 µM,0.1 to 1 µM,–,–,–,–,–,–,–,–,0.1 to 1 µM,0.1 to 1 µM,0.01 to 0.1 µM,0.1 to 1 µM,0.1 to 1 µM,0.1 to 1 µM,0.1 to 1 µM,0.1 to 1 µM,–,–
